From US3954733A, “Naphthyridine-3-carboxamido-benzylpenicillins and salts thereof” (Sumitomo Chemical Company, Limited, priority 1973, dated 1976)
In brackets after ≈: the same amount, converted by molar mass.

Experiments:
Assay in all cases: minimal inhibitory concentration, agar dilution method
Format in all cases: cell-based
Proteus miravilis GN2425 = tested on: Proteus miravilis GN2425
Escherichia coli NIHJ = tested on: Escherichia coli NIHJ
Text: (§1) When determined according to the agar dilution method, the penicillins (I) afford the minimal inhibitory concentrations against test microorganisms as shown in Table 2.

Proteus vulgaris HV19 = tested on: Proteus vulgaris HV19
[1] = tested on: Pseudomonas aeruginosa 104
Text: as §1

[2] = tested on: Staphylococcus aureus 209P
Text: as §1

Row | Compound | MIC (Proteus miravilis GN2425) [µg/mL] | MIC (Escherichia coli NIHJ) [µg/mL] | MIC (Proteus vulgaris HV19) [µg/mL] | MIC [1] [µg/mL] | MIC [2] [µg/mL]
1 | CC1(C)S[C@@H]2[C@H](NC(=O)C(NC(=O)c3cnc4cccnc4c3O)c3ccc(O)cc3)C(=O)N2[C@H]1C(=O)O (mixture of isomers) [Example 2, DL-α-(4-hydroxy-1,5-naphthyridine-3-carboxamido)-p-hydroxybenzylpenicillin] | 3.13 | 3.13 | 0.025 |  | 
2 | CCOC(=O)Oc1ccc(C(NC(=O)c2cnc3ccc(N(C)C)nc3c2O)C(=O)N[C@@H]2C(=O)N3[C@@H]2SC(C)(C)[C@@H]3C(=O)O)cc1 (mixture of isomers) [Example 3, DL-α-(4-hydroxy-6-dimethylamino-1,5-naphthyridine-3-carboxamido)-p-ethoxycarbonyloxybenzylpenicillin] | 1.56 | 1.56 | 0.1 | 3.13 | 1.56
3 | CC1(C)S[C@@H]2[C@H](NC(=O)C(NC(=O)c3cnc4ccccc4c3O)c3ccc(O)cc3)C(=O)N2[C@H]1C(=O)O (mixture of isomers) [Example 6, DL-α-(4-hydroxyquinoline-3-carboxamido)-p-hydroxybenzylpenicillin] | 6.25 | 6.25 | 0.2 | 6.25 | 0.78
4 | CC1(C)S[C@@H]2[C@H](NC(=O)C(C(=O)O)c3ccccc3)C(=O)N2[C@H]1C(=O)O (stereo partly shown) [Carbenicillin, reference compound] | 0.78 (≈ 2.06 µM) | 12.5 (≈ 33 µM) |  | 50 to 100 (≈ 132 to 264 µM) | 0.78 (≈ 2.06 µM)
5 | CC1(C)S[C@@H]2[C@H](NC(=O)[C@H](NC(=O)c3cnc4cccnc4c3O)c3ccc(O)cc3)C(=O)N2[C@H]1C(=O)O [Example 1, D-α-(4-hydroxy-1,5-naphthyridine-3-carboxamido)-p-hydroxybenzylpenicillin] | 1.56 (≈ 2.9 µM) | 1.56 (≈ 2.9 µM) | 0.025 (≈ 0.0465 µM) | 1.56 (≈ 2.9 µM) | 0.78 (≈ 1.45 µM)
6 | CC(C)(C)C(=O)Oc1ccc([C@@H](NC(=O)c2cnc3ccccc3c2O)C(=O)N[C@@H]2C(=O)N3[C@@H]2SC(C)(C)[C@@H]3C(=O)O)cc1 [Example 4, D-α-(4-hydroxyquinoline-3-carboxamido)-p-pivaloyloxybenzylpenicillin] | 6.25 (≈ 10.1 µM) | 6.25 (≈ 10.1 µM) | 0.2 (≈ 0.322 µM) | 6.25 (≈ 10.1 µM) | 0.39 (≈ 0.628 µM)
7 | CCOC(=O)Oc1c(C(=O)N[C@@H](C(=O)N[C@@H]2C(=O)N3[C@@H]2SC(C)(C)[C@@H]3C(=O)O)c2ccc(OC(=O)OCc3ccccc3)cc2)cnc2cccnc12 [Example 5, D-α-(4-ethoxycarbonyloxy-1,5-naphthyridine-3-carboxamido)-p-benzyloxycarbonyloxybenzylpenicillin] | 3.13 (≈ 4.21 µM) | 3.13 (≈ 4.21 µM) | 0.05 (≈ 0.0672 µM) | 3.13 (≈ 4.21 µM) | 1.56 (≈ 2.1 µM)
8 | Cc1ccc2c(O)c(C(=O)N[C@@H](C(=O)N[C@@H]3C(=O)N4[C@@H]3SC(C)(C)[C@@H]4C(=O)O)c3ccc(O)cc3)cnc2n1 [Example 7, D-α-(4-hydroxy-7-methyl-1,8-naphthyridine-3-carboxamido)-p-hydroxybenzylpenicillin] | 3.13 (≈ 5.67 µM) | 1.56 (≈ 2.83 µM) | 0.05 (≈ 0.0906 µM) | 1.56 (≈ 2.83 µM) | 0.78 (≈ 1.41 µM)
9 | CC1(C)S[C@@H]2[C@H](NC(=O)[C@H](NC(=O)c3nnc4ccccc4c3O)c3ccc(O)cc3)C(=O)N2[C@H]1C(=O)O [Example 8, D-α-(4-hydroxycinnoline-3-carboxamido)-p-hydroxybenzylpenicillin] | 12.5 (≈ 23.3 µM) | 12.5 (≈ 23.3 µM) |  | 12.5 (≈ 23.3 µM) | 0.78 (≈ 1.45 µM)
10 | CCOC(=O)Oc1ccc([C@@H](NC(=O)c2cnc3cccnc3c2O)C(=O)N[C@@H]2C(=O)N3[C@@H]2SC(C)(C)[C@@H]3C(=O)O)cc1 [Example 9, D-α-(4-hydroxy-1,5-naphthyridine-3-carboxamido)-p-ethoxycarbonyloxybenzylpenicillin] | 3.13 (≈ 5.13 µM) | 3.13 (≈ 5.13 µM) | 0.05 (≈ 0.082 µM) | 3.13 (≈ 5.13 µM) | 1.56 (≈ 2.56 µM)
11 | CCOC(=O)Oc1ccc([C@@H](NC(=O)c2cnc3cc(Cl)ccc3c2O)C(=O)N[C@@H]2C(=O)N3[C@@H]2SC(C)(C)[C@@H]3C(=O)O)cc1 [Example 10] | 0.78 (≈ 1.21 µM) |  |  |  | 0.39 (≈ 0.606 µM)
12 | CC1(C)S[C@@H]2[C@H](NC(=O)[C@H](NC(=O)c3cnc4cc(C(F)(F)F)ccc4c3O)c3ccc(O)cc3)C(=O)N2[C@H]1C(=O)O [Example 11] | 3.13 (≈ 5.18 µM) | 12.5 (≈ 20.7 µM) |  | 12.5 (≈ 20.7 µM) | 
13 | CCOC(=O)Oc1ccc([C@@H](NC(=O)c2cnc3ccccc3c2OC(=O)OCC)C(=O)N[C@@H]2C(=O)N3[C@@H]2SC(C)(C)[C@@H]3C(=O)O)cc1 [Example 12] | 3.13 (≈ 4.6 µM) | 3.13 (≈ 4.6 µM) | 0.2 (≈ 0.294 µM) | 6.25 (≈ 9.18 µM) | 0.78 (≈ 1.15 µM)
14 | CC1(C)S[C@@H]2[C@H](NC(=O)[C@H](NC(=O)c3cnc4ccccc4c3O)c3cccc(O)c3)C(=O)N2[C@H]1C(=O)O [Example 13] | 3.13 (≈ 5.83 µM) | 6.25 (≈ 11.6 µM) | 0.2 (≈ 0.373 µM) | 6.25 (≈ 11.6 µM) | 0.78 (≈ 1.45 µM)
15 | CC1(C)S[C@@H]2[C@H](NC(=O)[C@H](NC(=O)c3cnc4ccccc4c3O)c3ccc(O)c(Cl)c3)C(=O)N2[C@H]1C(=O)O [Example 14] | 6.25 (≈ 10.9 µM) | 6.25 (≈ 10.9 µM) |  | 6.25 (≈ 10.9 µM) | 0.78 (≈ 1.37 µM)
16 | CCOC(=O)Oc1ccc([C@@H](NC(=O)c2cnc3nc(C)ccc3c2O)C(=O)N[C@@H]2C(=O)N3[C@@H]2SC(C)(C)[C@@H]3C(=O)O)cc1 [Example 15] | 6.25 (≈ 10 µM) | 3.13 (≈ 5.02 µM) | 0.1 (≈ 0.16 µM) | 3.13 (≈ 5.02 µM) | 1.56 (≈ 2.5 µM)

Row | Compound | MIC (Proteus miravilis GN2425) [µg/mL] | MIC (Escherichia coli NIHJ) [µg/mL] | MIC (Proteus vulgaris HV19) [µg/mL] | MIC [1] [µg/mL] | MIC [2] [µg/mL]
17 | CC1(C)S[C@@H]2[C@H](NC(=O)C(NC(=O)c3cnc4cccnc4c3O)c3cccc(O)c3)C(=O)N2[C@H]1C(=O)O (stereo partly shown) [Example 16] | 3.13 (≈ 5.82 µM) | 3.13 (≈ 5.82 µM) | 0.05 (≈ 0.093 µM) | 3.13 (≈ 5.82 µM) | 1.56 (≈ 2.9 µM)
18 | CCOC(=O)Oc1ccc([C@@H](NC(=O)c2cnc3ccc(SC)nc3c2O)C(=O)N[C@@H]2C(=O)N3[C@@H]2SC(C)(C)[C@@H]3C(=O)O)cc1 [Example 17] | 1.56 (≈ 2.38 µM) | 1.56 (≈ 2.38 µM) | 0.1 (≈ 0.153 µM) | 1.56 (≈ 2.38 µM) | 0.78 (≈ 1.19 µM)
19 | Cc1ccc2ncc(C(=O)N[C@@H](C(=O)N[C@@H]3C(=O)N4[C@@H]3SC(C)(C)[C@@H]4C(=O)O)c3ccc(O)cc3)c(O)c2n1 [Example 18] | 1.56 (≈ 2.83 µM) | 1.56 (≈ 2.83 µM) | 0.05 (≈ 0.0906 µM) | 1.56 (≈ 2.83 µM) | 0.78 (≈ 1.41 µM)
20 | COc1ccc2ncc(C(=O)N[C@@H](C(=O)N[C@@H]3C(=O)N4[C@@H]3SC(C)(C)[C@@H]4C(=O)O)c3ccc(O)cc3)c(O)c2n1 [Example 19] | 3.13 (≈ 5.51 µM) | 3.13 (≈ 5.51 µM) | 0.05 (≈ 0.0881 µM) | 3.13 (≈ 5.51 µM) | 0.78 (≈ 1.37 µM)
21 | CCOC(=O)Oc1ccc([C@@H](NC(=O)c2cnc3cc([N+](=O)[O-])ccc3c2O)C(=O)N[C@@H]2C(=O)N3[C@@H]2SC(C)(C)[C@@H]3C(=O)O)cc1 [Example 20] | 6.5 (≈ 9.94 µM) | 12.5 (≈ 19.1 µM) |  | 12.5 (≈ 19.1 µM) | 0.78 (≈ 1.19 µM)
22 | CC1(C)S[C@@H]2[C@H](NC(=O)[C@H](NC(=O)c3cnc4ccc(O)nc4c3O)c3ccc(O)cc3)C(=O)N2[C@H]1C(=O)O [Example 22] | 1.56 (≈ 2.82 µM) | 1.56 (≈ 2.82 µM) | 0.05 (≈ 0.0903 µM) | 3.13 (≈ 5.65 µM) | 0.78 (≈ 1.41 µM)
23 | CCOC(=O)Oc1ccc([C@@H](NC(=O)c2cnc3ccc(NC(C)=O)nc3c2O)C(=O)N[C@@H]2C(=O)N3[C@@H]2SC(C)(C)[C@@H]3C(=O)O)cc1 [Example 23] | 3.13 (≈ 4.69 µM) | 3.13 (≈ 4.69 µM) | 0.2 (≈ 0.3 µM) | 3.13 (≈ 4.69 µM) | 1.56 (≈ 2.34 µM)
24 | CC1(C)S[C@@H]2[C@H](NC(=O)[C@H](NC(=O)c3cnc4ccc(N)nc4c3O)c3ccc(O)cc3)C(=O)N2[C@H]1C(=O)O [Example 24] | 3.13 (≈ 5.66 µM) | 1.56 (≈ 2.82 µM) | 0.05 (≈ 0.0905 µM) | 3.13 (≈ 5.66 µM) | 1.56 (≈ 2.82 µM)
25 | CCOC(=O)Oc1ccc([C@@H](NC(=O)c2cnc3ccc(N(C)C)nc3c2O)C(=O)N[C@@H]2C(=O)N3[C@@H]2SC(C)(C)[C@@H]3C(=O)O)cc1Cl [Example 25] | 3.13 (≈ 4.56 µM) | 3.13 (≈ 4.56 µM) | 0.05 (≈ 0.0728 µM) | 3.13 (≈ 4.56 µM) | 0.78 (≈ 1.14 µM)
26 | CC1(C)S[C@@H]2[C@H](NC(=O)[C@H](NC(=O)c3cc4ccccc4nc3O)c3ccc(O)cc3)C(=O)N2[C@H]1C(=O)O [Example 27] | 3.13 (≈ 5.83 µM) | 6.25 (≈ 11.6 µM) | 0.2 (≈ 0.373 µM) | 6.25 (≈ 11.6 µM) | 0.78 (≈ 1.45 µM)
27 | COc1nc(OC)c2c(O)c(C(=O)N[C@@H](C(=O)N[C@@H]3C(=O)N4[C@@H]3SC(C)(C)[C@@H]4C(=O)O)c3ccc(O)cc3)cnc2n1 [Example 28] | 3.13 (≈ 5.23 µM) | 3.13 (≈ 5.23 µM) | 0.05 (≈ 0.0835 µM) | 3.13 (≈ 5.23 µM) | 0.78 (≈ 1.3 µM)
28 | CC1(C)S[C@@H]2[C@H](NC(=O)[C@H](NC(=O)c3cnc4ccncc4c3O)c3ccc(O)cc3)C(=O)N2[C@H]1C(=O)O [Example 29] | 12.5 (≈ 23.3 µM) | 12.5 (≈ 23.3 µM) | 0.2 (≈ 0.372 µM) | 6.25 (≈ 11.6 µM) | 0.78 (≈ 1.45 µM)
29 | CC(C)COC(=O)Oc1ccc([C@@H](NC(=O)c2cnc3nc(N(C)C)ncc3c2O)C(=O)N[C@@H]2C(=O)N3[C@@H]2SC(C)(C)[C@@H]3C(=O)O)cc1 [Example 30] | 3.13 (≈ 4.59 µM) | 6.25 (≈ 9.17 µM) | 0.05 (≈ 0.0733 µM) | 6.25 (≈ 9.17 µM) | 0.78 (≈ 1.14 µM)
30 | Cc1nc(C)c2c(O)c(C(=O)N[C@@H](C(=O)N[C@@H]3C(=O)N4[C@@H]3SC(C)(C)[C@@H]4C(=O)O)c3ccc(O)cc3)cnc2n1 [Example 31] | 3.13 (≈ 5.52 µM) | 3.13 (≈ 5.52 µM) | 0.1 (≈ 0.176 µM) | 3.13 (≈ 5.52 µM) | 0.78 (≈ 1.38 µM)
31 | CC1(C)S[C@@H]2[C@H](NC(=O)[C@H](NC(=O)c3cnc4cccnc4c3O)c3ccc(O)c(Cl)c3)C(=O)N2[C@H]1C(=O)O [Example 32] | 6.25 (≈ 10.9 µM) | 3.13 (≈ 5.47 µM) | 0.05 (≈ 0.0874 µM) | 3.13 (≈ 5.47 µM) | 0.78 (≈ 1.36 µM)
32 | CCOC(=O)Oc1ccc([C@@H](NC(=O)c2cnc3cc4c(cc3c2S)OCO4)C(=O)N[C@@H]2C(=O)N3[C@@H]2SC(C)(C)[C@@H]3C(=O)O)cc1 [Example 38] | 3.13 (≈ 4.68 µM) |  | 0.2 (≈ 0.299 µM) | 3.13 (≈ 4.68 µM) | 0.39 (≈ 0.583 µM)
